Assay results reported in ChEMBL document CHEMBL5154702, “Synthesis and biological evaluation of aminobenzamides containing purine moiety as class I histone deacetylases inhibitors” (Bioorg Med Chem, 2022).

System: A549
Test: cells
Format: functional, cell-based
Settings: Homo sapiens, A549, 48 h

Row | IC50 [µM] | SMILES
1 | 514 | CCCNc1nc(Cl)nc2c1ncn2CCCC(=O)NCc1ccc(C(=O)Nc2ccccc2N)cc1
2 | 149 | CCNc1nc(Cl)nc2c1ncn2CCCC(=O)NCc1ccc(C(=O)Nc2ccccc2N)cc1

System: SGC-7901
Test: Antiproliferative activity against human SGC-7901 cells measured after 48 hrs by MTT assay
Format: functional, cell-based
Settings: SGC-7901, 48 h

Row | IC50 [µM] | SMILES
3 | 21.1 | CCCNc1nc(Cl)nc2c1ncn2CCCC(=O)NCc1ccc(C(=O)Nc2ccccc2N)cc1
4 | 56.8 | CCNc1nc(Cl)nc2c1ncn2CCCC(=O)NCc1ccc(C(=O)Nc2ccccc2N)cc1

Row | SMILES | IC50 [µM]
5 | O=C(CCCCCCC(=O)Nc1ccccc1)NO [VORINOSTAT] | 2.12

System: not listed separately
Test: in vitro
Settings: dog, liver microsomes

Row | SMILES | half-life [min]
6 | O=C(CCCCCCC(=O)Nc1ccccc1)NO [VORINOSTAT] | 30

Target: Histone deacetylase
Test: not given
Format: cell-based, Homo sapiens
Settings: hela

Row | SMILES | IC50 [µM]
7 | Nc1cc(Br)ccc1NC(=O)c1ccc(Cn2cnc3c(Cl)nc(Cl)nc32)cc1 | 9.1
8 | CCCCNc1nc(Cl)nc2c1ncn2Cc1ccc(C(=O)Nc2ccc(F)cc2N)cc1 | 1.28
9 | CNc1nc(Cl)nc2c1ncn2Cc1ccc(C(=O)Nc2ccc(F)cc2N)cc1 | 1.73
10 | CCCCNc1nc(Cl)nc2c1ncn2Cc1ccc(C(=O)Nc2ccc(Br)cc2N)cc1 | 2.04

Continued, values first:

Row | IC50 [µM] | SMILES
11 | 5.77 | CCNc1nc(Cl)nc2c1ncn2Cc1ccc(C(=O)Nc2ccc(F)cc2N)cc1
12 | 1.26 | CCCNc1nc(Cl)nc2c1ncn2CCCC(=O)NCc1ccc(C(=O)Nc2ccccc2N)cc1
13 | 2.31 | CCNc1nc(Cl)nc2c1ncn2CCCC(=O)NCc1ccc(C(=O)Nc2ccccc2N)cc1

System: MDA-MB-231
Test: Antiproliferative activity against human MDA-MB-231 cells measured after 48 hrs by MTT assay
Format: functional, cell-based
Settings: MDA-MB-231, 48 h

Row | IC50 [µM] | SMILES
14 | 28.4 | CCCNc1nc(Cl)nc2c1ncn2CCCC(=O)NCc1ccc(C(=O)Nc2ccccc2N)cc1
15 | 17.5 | CCNc1nc(Cl)nc2c1ncn2CCCC(=O)NCc1ccc(C(=O)Nc2ccccc2N)cc1

Row | SMILES | IC50 [µM]
16 | O=C(CCCCCCC(=O)Nc1ccccc1)NO [VORINOSTAT] | 1.54

System: HCT-116
Test: Antiproliferative activity against human HCT-116 cells measured after 48 hrs by MTT assay
Format: functional, cell-based
Settings: HCT-116, 48 h

Row | IC50 [µM] | SMILES
17 | 21.5 | CCCNc1nc(Cl)nc2c1ncn2CCCC(=O)NCc1ccc(C(=O)Nc2ccccc2N)cc1
18 | 90.8 | CCNc1nc(Cl)nc2c1ncn2CCCC(=O)NCc1ccc(C(=O)Nc2ccccc2N)cc1

Row | SMILES | IC50 [µM]
19 | O=C(CCCCCCC(=O)Nc1ccccc1)NO [VORINOSTAT] | 1.55
